Test results published in PMC7790953 (ACS chemical neuroscience, 2020).
Entries after “also recorded” stand apart in the source; their conditions may differ.

How the values were obtained:
h9B1 = format: binding; conditions: for Kd: read-out: Kd as printed in text (h9B1); for Ki: read-out: Ki (h9B1), pH 7.4
9B1 [1] = format: binding, mouse; conditions: for Kd: read-out: Kd as printed in text (9B1); for Ki: read-out: Ki (9B1), pH 7.4
9B1 [2] = conditions: estimated in original report; cited from earlier work
Ab15 = conditions: ref SI Table S2; cited from earlier work

Compound	Kd (h9B1)	Ki (h9B1)	Kd (9B1 [1])	Ki (9B1 [1])	Binding with h9B1 in initial screening (h9B1)	Binding with 9B1 in initial screening (9B1 [1])	Binding constant of 9B1 with morphine (9B1 [2])	IC50 (Ab15)
CC(=O)Oc1ccc2c3c1O[C@H]1[C@@H](OC(C)=O)C=C[C@H]4[C@@H](C2)N(C)CC[C@@]341 [heroin]	11.8 nM	11.8 nM	1.3 nM	1.3 nM	–	–	–	–
COc1ccc2c3c1O[C@H]1C(=O)CC[C@@]4(O)[C@@H](C2)N(C)CC[C@]314 [oxycodone]	–	6910 nM	–	2670 nM	–	–	–	–
buprenorphine	–	–	–	–	did not show significant binding affinities; also recorded: without significant binding	did not show significant binding affinities; also recorded: without significant binding	–	–
C=CCN1CC[C@]23c4c5ccc(O)c4O[C@H]2C(=O)CC[C@@]3(O)[C@H]1C5 [naloxone]	–	–	–	–	did not show significant binding affinities; also recorded: without significant binding	did not show significant binding affinities; also recorded: without significant binding	–	–
CN1CC[C@]23c4c5ccc(O)c4O[C@H]2[C@@H](O)C=C[C@H]3[C@H]1C5 [morphine]	–	–	–	–	–	–	~ 10^9 M^−1	–
COc1ccc2c3c1O[C@H]1C(=O)CC[C@H]4[C@@H](C2)N(C)CC[C@]314 [hydrocodone]	39.3 nM	39.3 nM	8.2 nM	8.2 nM	–	–	–	–
CC(=O)O[C@H]1C=C[C@H]2[C@H]3Cc4ccc(O)c5c4[C@@]2(CCN3C)[C@H]1O5 [6-MAM, 6-monoacetylmorphine]	11.9 nM	11.9 nM	4.8 nM	4.8 nM	–	–	–	–
O=C1CC[C@@]2(O)[C@H]3Cc4ccc(O)c5c4[C@@]2(CCN3CC2CC2)[C@H]1O5 [naltrexone]	–	> 10000 nM	–	> 10000 nM	did not show significant binding affinities; also recorded: without significant binding	did not show significant binding affinities; also recorded: without significant binding	–	310 nM
